{"source": "ChEMBL document CHEMBL4706720", "about": "“Pyrrolidine Compounds as Potential Lipid-Lowering Therapeutic in Cardiovascular Disease” (ACS Med Chem Lett, 2021)", "note": "pIC50: −log10 of the molar value.", "data": [{"experiment": "Inhibition of lipoprotein(a) assembly from Apo(a) and LDL particle in human HepG2 and HEK293 combined conditioned media incubated for 2 hrs by sandwich ELISA", "values": [{"smiles": "O=C(O)[C@@H](Cc1cccc(CN(Cc2cccc(C[C@H](C(=O)O)[C@H]3CCNC3)c2)Cc2cccc(C[C@H](C(=O)O)[C@H]3CCNC3)c2)c1)[C@H]1CCNC1", "pIC50": 10.02}, {"smiles": "CC(Cc1cccc(CN(Cc2cccc(CC(C)(C(=O)O)[C@H]3CCNC3)c2)Cc2cccc(CC(C)(C(=O)O)[C@H]3CCNC3)c2)c1)(C(=O)O)[C@H]1CCNC1", "note": "(some centres not stated)", "pIC50": 9.97}, {"smiles": "O=C(O)[C@@H](Cc1cccc(CNCc2cccc(C[C@H](C(=O)O)[C@H]3CCNC3)c2)c1)[C@H]1CCNC1", "pIC50": 9.03}, {"smiles": "O=C(O)[C@@H](Cc1cccc(Oc2cccc(C[C@H](C(=O)O)[C@H]3CCNC3)c2)c1)[C@H]1CCNC1", "pIC50": 9.43}, {"smiles": "O=C(O)[C@@H](Cc1cccc(S(=O)(=O)c2cccc(C[C@H](C(=O)O)[C@H]3CCNC3)c2)c1)[C@H]1CCNC1", "pIC50": 9.63}, {"smiles": "O=C(O)[C@@H](Cc1cccc(Sc2cccc(C[C@H](C(=O)O)[C@H]3CCNC3)c2)c1)[C@H]1CCNC1", "pIC50": 9.44}, {"smiles": "O=C(O)[C@@H](Cc1cccc([S+]([O-])c2cccc(C[C@H](C(=O)O)[C@H]3CCNC3)c2)c1)[C@H]1CCNC1", "pIC50": 9.40}, {"smiles": "O=C(O)[C@@H](Cc1cccc(NS(=O)(=O)Nc2cccc(C[C@H](C(=O)O)[C@H]3CCNC3)c2)c1)[C@H]1CCNC1", "pIC50": 9.25}, {"smiles": "O=C(O)[C@@H](Cc1cccc(COc2cccc(C[C@H](C(=O)O)[C@H]3CCNC3)c2)c1)[C@H]1CCNC1", "pIC50": 9.44}, {"smiles": "O=C(O)[C@@H](Cc1cccc(OCCOc2cccc(C[C@H](C(=O)O)[C@H]3CCNC3)c2)c1)[C@H]1CCNC1", "pIC50": 9.54}, {"smiles": "O=C(O)[C@@H](Cc1cccc(Nc2cccc(C[C@H](C(=O)O)[C@H]3CCNC3)c2)c1)[C@H]1CCNC1", "pIC50": 9.46}, {"smiles": "COc1cc(F)cc(CN(Cc2cccc(C[C@H](C(=O)O)[C@H]3CCNC3)c2)Cc2cccc(C[C@H](C(=O)O)[C@H]3CCNC3)c2)c1", "pIC50": 9.77}]}]}
